For this assay, the target named is Tyrosine-protein phosphatase non-receptor type 22 (Homo sapiens) (UniProt Q9Y2R2). Nature of the assay: LYP phosphatase inhibitors, confirmation, biochemical, DiFMUP fluorescence, retest and dose response (AID 1253). As to conditions: recombinant LYP; for inhibition: at 10 µM, active compounds read high.

36 compounds from PubChem BioAssay AID1253 (Columbia University Molecular Screening Center, 2008) can be followed below.

Calls of active or inactive are those of the source.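 Rule for the calls: active = IC50 under 10 µM in the follow-up dose response; inactive = IC50 10 µM or more, or under 40% single-dose inhibition.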

Tyrosine-protein phosphatase non-receptor type 22 (Homo sapiens), sequence (Q9Y2R2 whole entry, looked up): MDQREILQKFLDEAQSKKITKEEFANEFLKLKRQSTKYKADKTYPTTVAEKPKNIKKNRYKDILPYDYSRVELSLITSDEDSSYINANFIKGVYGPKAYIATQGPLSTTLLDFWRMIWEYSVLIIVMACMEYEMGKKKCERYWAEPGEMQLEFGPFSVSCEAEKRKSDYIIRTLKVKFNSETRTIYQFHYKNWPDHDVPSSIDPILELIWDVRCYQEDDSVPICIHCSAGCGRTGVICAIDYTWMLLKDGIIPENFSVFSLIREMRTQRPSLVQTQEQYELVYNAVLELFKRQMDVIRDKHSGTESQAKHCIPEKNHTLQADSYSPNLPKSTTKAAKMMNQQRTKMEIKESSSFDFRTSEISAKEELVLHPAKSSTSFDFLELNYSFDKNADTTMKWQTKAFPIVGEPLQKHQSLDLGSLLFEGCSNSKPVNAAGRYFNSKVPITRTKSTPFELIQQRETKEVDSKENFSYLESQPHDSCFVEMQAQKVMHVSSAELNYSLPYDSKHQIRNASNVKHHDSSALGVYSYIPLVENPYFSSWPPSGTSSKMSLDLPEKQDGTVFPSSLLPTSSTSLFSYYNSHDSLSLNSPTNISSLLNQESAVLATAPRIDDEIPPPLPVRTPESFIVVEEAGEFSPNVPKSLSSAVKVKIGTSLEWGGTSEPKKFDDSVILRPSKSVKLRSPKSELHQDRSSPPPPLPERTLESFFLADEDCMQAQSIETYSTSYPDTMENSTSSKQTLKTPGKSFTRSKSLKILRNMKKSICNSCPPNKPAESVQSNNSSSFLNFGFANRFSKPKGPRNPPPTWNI

Take `Cn1nc(-c2ccc(Cl)cc2)nc2c(=O)n(C)c(=O)nc1-2`: the IC50 is > 10000 nM (inactive).
Take `CC1CCN(S(=O)(=O)c2ccc(NN=C(C#N)C#N)cc2)CC1`: the inhibition entry is “inactive”.
On the same count and under the same terms, with `CCOc1ccc(N=C2NC(=O)S/C2=C\c2ccc(Cl)cc2)cc1` the entry was “inactive”; with `COc1ccc(S(=O)(=O)Nc2ccc(S(=O)(=O)N3CCCCC3)cc2)cc1`, “inactive”.
Turning to `CC(C)C(C(=O)O)N1C(=O)/C(=C/C=C/c2ccco2)SC1=S` (stereo unspecified), the IC50 is 2940 nM.
Take `O=C1C2C(C(=O)N1CCc1ccccc1)C1C=CC2C12CC2` (stereo unspecified): the inhibition result is “inactive”.
Same read-out and setting: with `CC(C)CNc1nnnc2c1sc1nc(N3CCOCC3)c3c(c12)CC(C)(C)SC3` the entry was “inactive”; with `CCCCNS(=O)(=O)c1ccc(NS(=O)(=O)c2c(C)cc(C)cc2C)cc1`, “inactive”.
Still for that read-out and setting: with `CSc1ccc(/C=N\NC(=O)COc2ccc(Cl)cc2Br)cc1` the entry was “inactive”; with `O=C(NNC(=O)c1ccc2ccccc2c1O)c1ccccc1Cl`, “inactive”; with `CC(OC(=O)c1ccco1)C(=O)NC1CCCCC1` (stereo unspecified), “inactive”.
On the same count and under the same terms, with `COc1ccc(-n2nnnc2SCC(=O)c2ccc(O)c(O)c2)cc1` the entry was “inactive”; with `Cc1cc(-c2csc(N)n2)c(C)n1CCC(C)C`, “inactive”; with `Cc1sc(NC(=O)c2sc3nc4c(C)cccc4cc3c2N)c(C#N)c1C`, “inactive”.
Turning to `Cc1nnc(SCC(=O)N/N=C/c2cn(-c3ccccc3)nc2-c2ccccc2)n1-c1ccccc1`, the inhibition entry was “inactive”.
Still for that read-out and setting: with `CC1CCc2c(sc(NC(=O)c3ccc(Cn4cc([N+](=O)[O-])cn4)o3)c2C#N)C1` (stereo unspecified) the entry was “inactive”; with `CCOC(=O)c1c2ccc(OCC(=O)N/N=C/c3ccc(C)cc3)cc2n2ccccc12`, “inactive”.
For `Cc1nc2c(c(=O)n1CCC1=CCCCC1)c1nc3ccccc3nc1n2/N=C/c1ccccc1`, the inhibition result was “inactive”.
With `CCNC(=S)NNC(=O)c1cccn(Cc2ccc(Cl)cc2)c1=O`, the inhibition entry is “inactive”.
On the same count and under the same terms, with `O=C(Nc1ccc2oc(-c3ccc(Cl)c(Cl)c3)nc2c1)c1ncn[nH]1` the entry was “inactive”.
On the same count and under the same terms, with `CCc1nnc(NS(=O)(=O)c2ccc(NC(=S)NC(=O)/C=C/c3ccc(C(C)C)cc3)cc2)s1` the entry was “inactive”; with `c1ccc(-c2nccc(-c3ccc(-n4cnc5ccccc54)cc3)n2)nc1`, “inactive”; with `CN1CCn2c1nc(N1CCOCC1)nc2=O`, “inactive”.
The same measure, in the same setting: with `CN(C)/C=C/C(=O)c1ccc(F)cc1` the entry was “inactive”.
`Cc1nc2ccc(S(=O)(=O)NCC(=O)NCc3ccc4c(c3)OCO4)cc2s1`: the inhibition entry was “inactive”.
Same read-out and setting: with `Cc1cc([N+](=O)[O-])nn1CC(=O)NNC(=S)Nc1ccc([N+](=O)[O-])cc1` the entry was “inactive”; with `Cc1cc(C)cc(-n2c3nc4ccccc4nc3c3c(=O)n(Cc4ccco4)cnc32)c1`, “inactive”; with `CCNC(=S)NNC(=O)c1cccn(Cc2ccc(Cl)cc2Cl)c1=O`, “inactive”.
`Clc1ccc(C2=C3CCCCn4c(-c5ccccc5)c[n+](c43)C2)cc1`: the inhibition result was “inactive”.
On the same count and under the same terms, with `O=C(Cc1cnn(-c2ccccc2)c1)c1ccc(O)c(O)c1O` the entry was “inactive”; with `O=C(Nc1cnc2ccccc2c1)C1COc2ccccc2O1` (stereo unspecified), “inactive”.
Take `Cc1c2cc(O)c(=O)cc-2oc2cc(O)c(O)cc12`: the IC50 is 480 nM.
On to `Cc1ccc(CNC(=O)c2ccccc2N)cc1`, for which the inhibition result was “inactive”.
On to `Cc1ccc(NC(=O)CN2C(=O)S/C(=C\c3cccn3-c3cccc(C(=O)O)c3)C2=O)c(C)c1`, for which the IC50 was 1270 nM.
For the compound `O=C(CCC(=O)OC(C(=O)c1ccccc1)c1ccccc1)Nc1ccccc1` (stereo unspecified), the inhibition result is “inactive”.
Same read-out and setting: with `COc1ccc(C2C(C#N)=C(N)N(c3sc4c(c3C#N)CCCC4)C3=C2C(=O)CC(C)(C)C3)cc1OC` (stereo unspecified) the entry was “inactive”.
